Measurements reported in paper PMC10675732 (Viruses, 2023).
Values joined by “and” are separate entries in the source; they are usually repeats but may differ in a detail not shown here. Equal entries are not always repeated. Where two headings read alike, the source gives them in different places. Marks after values point to notes of the source that are not given here.

Assays:
[1] = system: Parent virus (A/PR/8/34 (H1N1)); experiment: microbe, parasite or virus in culture; type: cell-based; settings: Influenza A virus, plaque reduction assay
A/PR/8/34 (H1N1) [2] = type: in vivo, influenza A virus
B/Hong Kong/5/72 [3] = type: in vivo, influenza B virus
A/PR/8/34 (H1N1) [4] = settings: viral yield; cited from earlier work
B/Hong Kong/5/72 [5] = settings: viral yield; cited from earlier work
influenza A viruses = settings: range over influenza A viruses, previous study; cited from earlier work
influenza B viruses = settings: range over influenza B viruses, previous study; cited from earlier work
[6] = system: seasonal influenza A viruses; settings: cited from earlier work
in vivo = settings: mouse, sc
[7] = cited from earlier work
[8] = human, in vivo, po; cited from earlier work
[9] = mouse, in vivo, po; cited from earlier work

Work on `NC(=O)c1nc(F)c[nH]c1=O` [Favipiravir] yielded an EC50 [1] of 22.3 ± 1.01 µM.

With `O=C1c2c(O)c(=O)ccn2N([C@@H]2c3ccccc3SCc3c2ccc(F)c3F)[C@@H]2COCCN12` [baloxavir acid] the “Body weight loss induced by infection” value (A/PR/8/34 (H1N1) [2]; in vivo) was “suppressed body weight loss”, the Mortality (A/PR/8/34 (H1N1) [2]; in vivo) was “complete elimination of mortality” and the “Mortality due to infection” value (A/PR/8/34 (H1N1) [2]; in vivo) was “completely eliminated mortality”. For the same compound, the Survival (A/PR/8/34 (H1N1) [2]; in vivo) was “all mice survived”, the “Survival Rate” value (A/PR/8/34 (H1N1) [2]; in vivo) was 100 ** % and the “Virus titres in the lungs compared to the oseltamivir phosphate group” value (A/PR/8/34 (H1N1) [2]; in vivo) was “significantly lower”. For the same compound, the “Virus titres in the lungs compared to the vehicle-treated group” value (A/PR/8/34 (H1N1) [2]; in vivo) was “significantly low”, the “Body weight loss induced by infection” value (B/Hong Kong/5/72 [3]; in vivo) was “suppressed body weight loss” and the “Mortality due to infection” value (B/Hong Kong/5/72 [3]; in vivo) was “completely eliminated mortality”. For the same compound, the Survival (B/Hong Kong/5/72 [3]; in vivo) was “all mice survived”, the “Survival Rate” value (B/Hong Kong/5/72 [3]; in vivo) was 50 * % and 100 ** % and 80 * % and 50% and the Survival rate (B/Hong Kong/5/72 [3]; in vivo) was at most 50%. The Survival vs vehicle (B/Hong Kong/5/72 [3]; in vivo) was “significantly improved survival”, the “Virus titres in the lungs compared to the oseltamivir phosphate group” value (B/Hong Kong/5/72 [3]; in vivo) was “significantly lower” and the “Virus titres in the lungs compared to the vehicle-treated group” value (B/Hong Kong/5/72 [3]; in vivo, sc, 10 mg/kg) was “significantly low”. The EC50 [1] was 0.00169 ± 0.00057 µM, the EC90 (A/PR/8/34 (H1N1) [4]) was 0.79 nM and the EC90 (B/Hong Kong/5/72 [5]) was 2.2 nM. For the same compound, the EC90 (influenza A viruses) was 0.46 to 0.98 nM, the EC90 (influenza B viruses) was 2.2 to 6.5 nM and the “mean EC50 against seasonal influenza A viruses relative to influenza B viruses” value [6] was “five to ten times lower”. It also gave a half-life (in vivo; female, BALB/c, 3.2 mg/kg) of 3.09 days, a half-life (in vivo; female, BALB/c, 6.4 mg/kg) of 3.51 days and a half-life (in vivo; 10 mg/kg) of 2.08 days. The Plasma concentration ([7]; 10 mg/kg s.c. single dose, 2 h after dosing) was 44.0 ng/mL, the Plasma concentration ([7]; 10 mg/kg s.c. single dose, 4 h after dosing) was 47.2 ng/mL and the Plasma concentration ([7]; 10 mg/kg s.c. single dose, 8 h after dosing) was 34.4 ng/mL. For the same compound, the Plasma concentration ([7]; 10 mg/kg s.c. single dose, 48 h after dosing) was 17.8 ng/mL, the Plasma concentration ([7]; 10 mg/kg s.c. single dose, 120 h after dosing) was 6.79 ng/mL and the Plasma concentration ([7]; 10 mg/kg s.c. single dose, 168 h after dosing) was 6.51 ng/mL. The Plasma concentration ([7]; 10 mg/kg s.c. single dose, 216 h after dosing) was 5.97 ng/mL, the Plasma concentration ([7]; mouse, in vivo) was 26.1 ng/mL and the “Half-life of baloxavir acid in humans” value [8] was 49 to 91 h. The “Half-life of baloxavir acid in plasma” value [9] was 2.2 to 3.1 h.

With `CCOC(=O)C1=C[C@@H](OC(CC)CC)[C@H](NC(C)=O)[C@@H](N)C1` [oseltamivir phosphate] the “Body weight loss induced by infection” value (A/PR/8/34 (H1N1) [2]; in vivo) was “suppressed body weight loss”, the “Virus titres in the lungs compared to the vehicle-treated group” value (A/PR/8/34 (H1N1) [2]; in vivo) was “significantly low” and the Mice survived (A/PR/8/34 (H1N1) [2]; n = 10) was 100%. The “Body weight loss induced by infection” value (B/Hong Kong/5/72 [3]; in vivo) was “suppressed body weight loss” and the Mice survived (B/Hong Kong/5/72 [3]; n = 10) was 70%.
